Values of other authors as cited in publication PMC8891573, “Dysregulation of the Nitric Oxide/Dimethylarginine Pathway in Hypoxic Pulmonary Vasoconstriction—Molecular Mechanisms and Clinical Significance” (Frontiers in Medicine, 2022).
Like-named read-outs stand apart in the source and are kept apart here.

Experiments:
[1] = tested on: eNOS; details: for effect on NOS activity: competition with L-arginine for the NOS catalytic site
[2] = tested on: CAT-2; set-up: method as in PMID 28684763, PMID 9701046
[3] = tested on: mice; set-up: method as in PMID 17068215; details: acute HX exposure, HC or SC mice, i.p. injection of ADMA
[4] = tested on: mouse lungs; set-up: method as in PMID 19648472; details: oral L-arginine treatment
[5] = set-up: method as in PMID 9799202
[6] = tested on: isolated aortic rings; set-up: method as in PMID 2870025
[7] = tested on: ETA and ETB receptors; set-up: method as in PMID 8847282, PMID 8873714, PMID 20415698; details: animal models and clinical studies
[8] = inhaled NO, small trials

In the case of CN(C)C(N)=NCCC[C@H](N)C(=O)O [ADMA, asymmetric dimethylarginine], the “inhibition of eNOS” value [1] is listed as “competitive inhibitor”, the “effect on NOS activity” value [1] is listed as “competitively inhibits NOS activity” and the “inhibition of CAT-2, cellular uptake transporter for L-arginine” value [2] is listed as “may inhibit”. The HX survival time [3] was “ADMA increased HX survival time in HC and in SC mice; the effect was mediated by regulation of eNOS activity”.

In the case of N=C(N)NCCC[C@H](N)C(=O)O [L-arginine], the “PRMT2, DDAH2, ADMA and nitrotyrosine changes in ovalbumin-treated mice” value [4] is given as “PRMT2 ↑ and DDAH2 ↓ in ovalbumin-treated mice, along with ↑ ADMA and ↑ nitrotyrosine; Reversal with oral L-arginine treatment” and the “reversal of impaired NO generation and endothelial dysfunction due to elevated ADMA” value [5] is given as “reversible”.

For CN=C(NC)NCCC[C@H](N)C(=O)O [SDMA, symmetric dimethylarginine], the “effect on NOS activity” value [1] is listed as “unable to directly interfere with NOS activity” and the “inhibition of CAT-2, cellular uptake transporter for L-arginine” value [2] is listed as “may inhibit”.

For CC(=O)OCC[N+](C)(C)C [acetylcholine], the “vascular response of aortic rings” value ([6]; Wistar rats) is listed as “endothelium-dependent vasodilation” and the “vascular response of aortic rings” value ([6]; spontaneously hypertensive rats (SHR)) is listed as “vasoconstriction”.

In the case of COc1ccccc1Oc1c(NS(=O)(=O)c2ccc(C(C)(C)C)cc2)nc(-c2ncccn2)nc1OCCO [bosentan], the “effect on HPV” value [7] is listed as “variable effects”.

In the case of Nitric oxide [NO], the “effects on COVID-19-associated hypoxaemia and outcome” value [8] is given as “inconclusive”.
